Measured values: patent publication US20150238494A1, “HIGHLY SOLUBLE PURINE BIOACTIVE COMPOUNDS AND COMPOSITIONS THEREOF” (JHO Intellectual Property Holdings, LLC, priority 2014, published 2015)

Tests used:
[1] = Stability of theacrine solutions 0.1%, 0.2%, 0.4% in USP type I glass vials, 3 months at 40° C.; type: physicochemical; conditions: Storage 40 C., in % (unit assumed)
[2] = Stability of theacrine solution 1.3 mg/ml in USP Type I glass vials, 15 weeks at RT and 40° C.; type: physicochemical; conditions: 1.3 mg/ml solution, in % (unit assumed)
Description: The Table 1 below is data indicating assay results for stability of a theacrine solution prepared at 1.3 mg/ml and stored in USP Type I Glass vials for 15 weeks at RT and 40° C.

Assay value ([1]; 0.1% Solution, 1-M): 101
Assay value ([1]; 0.1% Solution, 2-M): 100.4
Assay value ([1]; 0.1% Solution, 3-M): 100.7
Assay value ([1]; 0.1% Solution, 10-d): 100.4
Assay value ([1]; 0.1% Solution, Initial): 100.6
Assay value ([1]; 0.2% Solution, 1-M): 98.9
Assay value ([1]; 0.2% Solution, 2-M): 97.5
Assay value ([1]; 0.2% Solution, 3-M): 99.4
Assay value ([1]; 0.2% Solution, 10-d): 98.6
Assay value ([1]; 0.2% Solution, Initial): 99.8
Assay value ([1]; 0.4% Solution, 1-M): 94.9
Assay value ([1]; 0.4% Solution, 2-M): 95.3
Assay value ([1]; 0.4% Solution, 3-M): 95.8
Assay value ([1]; 0.4% Solution, 10-d): 92.3
Assay value ([1]; 0.4% Solution, Initial): 94.1
Assay ([2]; Room Temperature (RT), 1-wk): 98.7
Assay ([2]; Room Temperature (RT), 2-wk): 100.1
Assay ([2]; Room Temperature (RT), 4-wk): 99.2
Assay ([2]; Room Temperature (RT), 8-wk): 99.9
Assay ([2]; Room Temperature (RT), 15-wk): 99.3
Assay ([2]; Room Temperature (RT), Initial): 99.6
Assay ([2]; Storage 40 C., 1-wk): 98.2
Assay ([2]; Storage 40 C., 2-wk): 98.9
Assay ([2]; Storage 40 C., 4-wk): 98.7
Assay ([2]; Storage 40 C., 8-wk): 98.6
Assay ([2]; Storage 40 C., 15-wk): 98.0
Assay ([2]; Storage 40 C., Initial): 99.6
SMILES: Cn1c(=O)c2c(n(C)c1=O)n(C)c(=O)n2C [Theacrine, 1,3,7,9-Tetramethyluric acid]
